molecular target: T1, recombinant Axl tyrosine kinase (Homo sapiens, UniProt P30530); test: In vitro Axl kinase assay (AlphaScreen), Test (a); assay type: biochemical; settings: 1 μM; mean calculated from a larger number of replicates than the first value
T1 construct: encompassing amino acids 473 to 894 of Axl; GST (N); made in house; host or cells: SF126 insect cells
T1 sequence (P30530 473-894): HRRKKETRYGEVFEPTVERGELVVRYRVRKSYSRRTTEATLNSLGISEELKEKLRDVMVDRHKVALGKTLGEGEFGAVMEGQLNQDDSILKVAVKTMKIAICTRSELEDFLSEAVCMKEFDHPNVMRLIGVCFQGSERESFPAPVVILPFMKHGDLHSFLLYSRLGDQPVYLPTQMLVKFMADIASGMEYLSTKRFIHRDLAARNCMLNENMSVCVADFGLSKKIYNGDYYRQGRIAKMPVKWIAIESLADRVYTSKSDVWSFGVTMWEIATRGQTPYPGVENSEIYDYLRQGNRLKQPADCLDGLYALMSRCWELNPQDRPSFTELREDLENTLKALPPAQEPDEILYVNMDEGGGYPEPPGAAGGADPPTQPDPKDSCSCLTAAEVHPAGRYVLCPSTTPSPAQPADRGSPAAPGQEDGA

Going from Nc1ncc(-c2ccc(CN3CCOCC3)cc2)cc1-c1nc2ccncc2o1 [Example 11A.1] to Nc1ncc(-c2ccc(CN3CCOCC3)cc2)nc1-c1nc2ccccc2o1 [Example 20.6], the “% Axl tyrosine kinase inhibition at 1 μM concentration (second value, †)” value falls from 99.4% to 99.2%.

Going from Nc1ncc(-c2cccc(N3CCNCC3)c2)nc1-c1nc2ccccc2o1 [Example 20.2] to Nc1ncc(-c2ccc(N3CCNCC3)nc2)nc1-c1nc2ccccc2o1 [Example 20.3], the “% Axl tyrosine kinase inhibition at 1 μM concentration (second value, †)” value falls from 99.3% to 98.7%.

same assay, conditions: 1 μM; mean calculated from a larger number of replicates than the first value; read-out: % Axl tyrosine kinase inhibition at 1 μM concentration (second value, †)

First: CC(C)(C)OC(=O)N1CCC(n2cc(-c3cnc(N)c(-c4nc5ccccc5s4)c3)cn2)CC1 [Example 13, tert-butyl 4-[4-[6-Amino-5-(1,3-benzothiazol-2-yl)-3-pyridyl]pyrazol-1-yl]piperidine-1-carboxylate]
Second: CC(C)(C)OC(=O)N1CCC(n2cc(-c3cnc(N)c(-c4nc5ccccc5o4)n3)cn2)CC1 [Example 15, Tert-butyl 4-[4-[5-amino-6-(1,3-benzoxazol-2-yl)pyrazin-2-yl]pyrazol-1-yl]piperidine-1-carboxylate]
The inhibition at 1 µM of the first is lower: 99% for the first, 99.4% for the second.

same assay, conditions: test compound at 1 μM; first value quoted

First: Nc1ncc(-c2ccc(C(=O)NCCO)cc2)cc1-c1nc2ncccc2o1 [Example 10A.5]
Second: CN(C)CCCNC(=O)c1ccc(-c2cnc(N)c(-c3nc4ncccc4o3)c2)cc1 [Example 10A.12]
The “% Axl tyrosine kinase inhibition at 1 μM concentration” value of the first is lower: 91.4% for the first, 99.0% for the second.

First: Nc1ncc(-c2cccc(C(=O)NC3CC3)c2)cc1-c1nc2ncccc2o1 [Example 10A.6]
Second: Nc1ncc(-c2cccc(C(=O)NC3CC3)c2)cc1-c1nc2ccncc2o1 [Example 11A.7]
The “% Axl tyrosine kinase inhibition at 1 μM concentration” value of the first is lower: 37.8% for the first, 80.3% for the second.

Compared with Nc1ncc(-c2cccc(CN3CCCC3)c2)cc1-c1nc2ncccc2o1 [Example 10A.7], Nc1ncc(-c2cccc(CN3CCCCC3)c2)cc1-c1nc2ncccc2o1 [Example 10A.11] is lower in “% Axl tyrosine kinase inhibition at 1 μM concentration” value: 95.9% for the first, 88.4% for the second.

First: CN1CCN(C(=O)c2cccc(-c3cnc(N)c(-c4nc5ncccc5o4)c3)c2)CC1 [Example 10A.8]
Second: Nc1ncc(-c2cccc(C(=O)NCCN3CCCC3)c2)cc1-c1nc2ncccc2o1 [Example 10A.9]
The “% Axl tyrosine kinase inhibition at 1 μM concentration” value of the first is lower: 57.4% for the first, 82.5% for the second.

First: Nc1ncc(-c2cccc(S(=O)(=O)NC3CC3)c2)cc1-c1nc2ncccc2o1 [Example 10A.10]
Second: COCc1cccc(-c2cnc(N)c(-c3nc4ncccc4o3)c2)c1 [Example 10A.16]
The “% Axl tyrosine kinase inhibition at 1 μM concentration” value of the first is lower: 90.0% for the first, 99.9% for the second.

Compared with Nc1ncc(-c2ccc(C(=O)N3CCC(O)CC3)cc2)cc1-c1nc2ncccc2o1 [Example 10A.13], Nc1ncc(-c2ccc(C(=O)N3CCC(O)CC3)cc2)cc1-c1nc2ccncc2o1 [Example 11A.2] is higher in “% Axl tyrosine kinase inhibition at 1 μM concentration” value: 91.1% for the first, 97.5% for the second.

Compared with Nc1ncc(-c2ccc(C(=O)N3CCOCC3)cc2)cc1-c1nc2ncccc2o1 [Example 10A.14], Nc1ncc(-c2ccc(CN3CCOCC3)cc2)cc1-c1nc2ccncc2o1 [Example 11A.1] is higher in “% Axl tyrosine kinase inhibition at 1 μM concentration” value: 92.7% for the first, 99.6% for the second.

First: Nc1ncc(-c2cccc(N3CCCCC3)c2)cc1-c1nc2ncccc2o1 [Example 10A.17]
Second: Nc1ncc(-c2cccc(N3CCCCC3)c2)cc1-c1nc2ccncc2o1 [Example 11A.6]
The “% Axl tyrosine kinase inhibition at 1 μM concentration” value of the first is lower: 40.3% for the first, 90.0% for the second.

Going from CN(C)CCNC(=O)c1cccc(-c2cnc(N)c(-c3nc4ncccc4o3)c2)c1 [Example 10A.18] to Nc1ncc(-c2ccc(CO)s2)cc1-c1nc2ncccc2o1 [Example 10A.19], the “% Axl tyrosine kinase inhibition at 1 μM concentration” value rises from 84.7% to 90.1%.

First: CC(C)(C)OC(=O)N1CCC(C(=O)Nc2cccc(-c3cnc(N)c(-c4nc5ccncc5o4)c3)c2)CC1 [Example 11A.3]
Second: CC(C)(C)OC(=O)NCc1cccc(-c2cnc(N)c(-c3nc4ccncc4o3)c2)c1 [Example 11A.9]
The “% Axl tyrosine kinase inhibition at 1 μM concentration” value of the first is lower: 87.7% for the first, 99.3% for the second.

Compared with Nc1ncc(-c2cccc(CN3CCCC3)c2)cc1-c1nc2ccncc2o1 [Example 11A.5], Nc1ncc(-c2cccc(N3CCOCC3)c2)cc1-c1nc2ccncc2o1 [Example 11A.12] is lower in “% Axl tyrosine kinase inhibition at 1 μM concentration” value: 97.4% for the first, 93.7% for the second.

Going from CNS(=O)(=O)c1cccc(-c2cnc(N)c(-c3nc4ccncc4o3)c2)c1 [Example 11A.8] to CN(C)S(=O)(=O)c1cccc(-c2cnc(N)c(-c3nc4ccccc4o3)n2)c1 [Example 20.1], the “% Axl tyrosine kinase inhibition at 1 μM concentration” value rises from 39.6% to 91.8%.

Compared with Nc1ncc(-c2cccc(N3CCNCC3)c2)nc1-c1nc2ccccc2o1 [Example 20.2], Nc1ncc(-c2cccc(N3CCCC3)c2)nc1-c1nc2ccccc2o1 [Example 20.5] is lower in “% Axl tyrosine kinase inhibition at 1 μM concentration” value: 99.6% for the first, 85.6% for the second.

Compared with Nc1ncc(-c2ccc(N3CCNCC3)nc2)nc1-c1nc2ccccc2o1 [Example 20.3], CN1CCN(c2ccc(-c3cnc(N)c(-c4nc5ccccc5o4)n3)cn2)CC1 [Example 20.7] is higher in “% Axl tyrosine kinase inhibition at 1 μM concentration” value: 99.3% for the first, 99.6% for the second.

Going from Nc1ncc(-c2cccc(N3CCCCC3)c2)nc1-c1nc2ccccc2o1 [Example 20.4] to Nc1ncc(-c2cccc(N3CCOCC3)c2)nc1-c1nc2ccccc2o1 [Example 20.8], the “% Axl tyrosine kinase inhibition at 1 μM concentration” value rises from 89.2% to 98.9%.

Nc1ncc(-c2ccc(CN3CCOCC3)cc2)nc1-c1nc2ccccc2o1 [Example 20.6] and Nc1ncc(-c2cccc(CN3CCOCC3)c2)nc1-c1nc2ccccc2o1 [Example 20.10] are the same in “% Axl tyrosine kinase inhibition at 1 μM concentration” value: 99.1% for the first, 99.1% for the second.

First: CS(=O)(=O)c1cccc(-c2cnc(N)c(-c3nc4ccccc4o3)n2)c1 [Example 20.9]
Second: CCS(=O)(=O)c1cccc(-c2cnc(N)c(-c3nc4ccccc4o3)n2)c1 [Example 20.13]
The “% Axl tyrosine kinase inhibition at 1 μM concentration” value of the first is lower: 92.1% for the first, 97.2% for the second.

Going from Nc1ncc(-c2ccc(N3CCNCC3)cc2)nc1-c1nc2ccccc2o1 [Example 20.11] to CN(C)S(=O)(=O)c1ccc(-c2cnc(N)c(-c3nc4ccccc4o3)n2)cc1 [Example 20.12], the “% Axl tyrosine kinase inhibition at 1 μM concentration” value falls from 100.0% to 92.7%.

Compared with CN(C)c1cccc(-c2cnc(N)c(-c3nc4ccccc4o3)n2)c1 [Example 20.15], COCc1cccc(-c2cnc(N)c(-c3nc4ccccc4o3)n2)c1 [Example 20.17] is higher in “% Axl tyrosine kinase inhibition at 1 μM concentration” value: 96.9% for the first, 98.8% for the second.

Going from N#CCc1cccc(-c2cnc(N)c(-c3nc4ccccc4o3)n2)c1 [Example 20.16] to CS(=O)(=O)Oc1cccc(-c2cnc(N)c(-c3nc4ccccc4o3)n2)c1 [Example 20.18], the “% Axl tyrosine kinase inhibition at 1 μM concentration” value falls from 99.6% to 98.1%.

same assay, conditions: test compound at 1 μM; first value quoted; read-out: % Axl tyrosine kinase inhibition at 1 μM concentration

First: CN(C)CCNC(=O)c1ccc(-c2cnc(N)c(-c3nc4ncccc4o3)c2)cc1 [Example 10A.15, 4-(6-amino-5-oxazolo[4,5-b]pyridin-2-yl-3-pyridyl)-N-(2-dimethylaminoethyl)benzamide]
Second: C[N+]1([O-])CCC(n2cc(-c3cnc(N)c(-c4nc5ccccc5o4)c3)cn2)CC1 (centres unmarked) [Example 12, 3-(1,3-Benzoxazol-2-yl)-5-[1-(1-methyl-1-oxido-piperidin-1-ium-4-yl)pyrazol-4-yl]pyridin-2-amine]
The inhibition at 1 µM of the first is higher: 98.4% for the first, 90.6% for the second.

Going from Nc1ncc(-c2cnn(C3CCNCC3)c2)cc1-c1nc2ccncc2o1 [Example 11, 3-Oxazolo[5,4-c]pyridin-2-yl-5-[1-(4-piperidyl)pyrazol-4-yl]pyridin-2-amine] to Nc1ncc(-c2cnn(C3CCNCC3)c2)nc1-c1nc2ccc(F)cc2o1 [Example 17A.1, 3-(6-fluoro-1,3-benzoxazol-2-yl)-5-[1-(4-piperidyl)pyrazol-4-yl]pyrazin-2-amine], the inhibition at 1 µM falls from 99% to 98.5%.

Compared with CC(C)(C)OC(=O)N1CCC(n2cc(-c3cnc(N)c(-c4nc5ccccc5s4)c3)cn2)CC1 [Example 13, tert-butyl 4-[4-[6-Amino-5-(1,3-benzothiazol-2-yl)-3-pyridyl]pyrazol-1-yl]piperidine-1-carboxylate], CN1CCC(n2cc(-c3cnc(N)c(-c4nc5ccccc5s4)c3)cn2)CC1 [Example 16, 3-(1,3-Benzothiazol-2-yl)-5-[1-(1-methyl-4-piperidyl)pyrazol-4-yl]pyridin-2-amine] is higher in inhibition at 1 µM: 95.4% for the first, 99.8% for the second.

First: CC(C)(C)OC(=O)N1CCC(n2cc(-c3cnc(N)c(-c4nc5ccccc5o4)n3)cn2)CC1 [Example 15, Tert-butyl 4-[4-[5-amino-6-(1,3-benzoxazol-2-yl)pyrazin-2-yl]pyrazol-1-yl]piperidine-1-carboxylate]
Second: CN1CCC(n2cc(-c3cnc(N)c(-c4nc5ccccc5o4)n3)cn2)CC1 [Example 18, 3-(1,3-benzoxazol-2-yl)-5-[1-(1-methyl-4-piperidyl)pyrazol-4-yl]pyrazin-2-amine]
The inhibition at 1 µM of the first is lower: 93.1% for the first, 99.3% for the second.

Nc1ncc(-c2cnn(C3CCNCC3)c2)nc1-c1nc2ccccc2o1 [Example 17, 3-(1,3-Benzoxazol-2-yl)-5-[1-(4-piperidyl)pyrazol-4-yl]pyrazin-2-amine] and Nc1ncc(-c2cnn(C3CCNCC3)c2)nc1-c1nc2ccccc2s1 [Example 19, 3-(1,3-Benzothiazol-2-yl)-5-[1-(4-piperidyl)pyrazol-4-yl]pyrazin-2-amine] are the same in inhibition at 1 µM: 99.6% for the first, 99.6% for the second.

— US8017611B2, “Pyridine and pyrazine derivatives -083” (AstraZeneca AB, priority 2007, dated 2011)
